Experimental data from patent US20120122860A1, “SOLID FORMS OF SULFONAMIDES AND AMINO ACIDS” (Plexxikon, Inc., priority 2009, published 2012).

What was measured:
B-Raf V600E = B-Raf V600E (Homo sapiens, UniProt P15056, V600E); assay: Kinase activity assay, B-Raf V600E; format: biochemical; conditions: read-out: activity toward kinase B-Raf V600E, IC50
Kit = Kit (Homo sapiens, UniProt P10721); assay: Kinase activity assay, Kit
B-Raf = B-Raf (Homo sapiens, UniProt P15056); assay: Kinase activity assay, B-Raf; format: biochemical; conditions: read-out: activity toward kinase B-Raf, IC50
B-Raf, sequence (P15056 whole entry): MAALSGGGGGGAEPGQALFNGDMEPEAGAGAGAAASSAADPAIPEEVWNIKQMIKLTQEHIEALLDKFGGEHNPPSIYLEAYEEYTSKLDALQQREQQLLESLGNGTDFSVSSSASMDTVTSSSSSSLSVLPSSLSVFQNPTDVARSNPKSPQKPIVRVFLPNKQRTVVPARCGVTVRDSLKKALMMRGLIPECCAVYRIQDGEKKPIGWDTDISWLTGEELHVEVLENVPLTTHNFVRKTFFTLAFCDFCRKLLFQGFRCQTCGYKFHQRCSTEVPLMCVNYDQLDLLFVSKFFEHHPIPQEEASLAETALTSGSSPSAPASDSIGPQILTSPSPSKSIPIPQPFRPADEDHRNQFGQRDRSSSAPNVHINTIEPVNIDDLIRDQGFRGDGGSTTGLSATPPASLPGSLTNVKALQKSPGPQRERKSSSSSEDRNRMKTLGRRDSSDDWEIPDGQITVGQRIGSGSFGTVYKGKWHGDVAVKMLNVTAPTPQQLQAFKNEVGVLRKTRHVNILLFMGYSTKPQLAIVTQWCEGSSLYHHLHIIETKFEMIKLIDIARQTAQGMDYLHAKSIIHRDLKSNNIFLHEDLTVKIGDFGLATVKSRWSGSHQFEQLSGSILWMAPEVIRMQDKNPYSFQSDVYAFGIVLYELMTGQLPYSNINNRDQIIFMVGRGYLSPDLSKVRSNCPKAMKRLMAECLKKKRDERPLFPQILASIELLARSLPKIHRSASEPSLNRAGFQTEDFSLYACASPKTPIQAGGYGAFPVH

Kdr = Kdr (Homo sapiens, UniProt P35968); assay: Kinase activity assay, Kdr
Kdr, sequence (P35968 20-1356): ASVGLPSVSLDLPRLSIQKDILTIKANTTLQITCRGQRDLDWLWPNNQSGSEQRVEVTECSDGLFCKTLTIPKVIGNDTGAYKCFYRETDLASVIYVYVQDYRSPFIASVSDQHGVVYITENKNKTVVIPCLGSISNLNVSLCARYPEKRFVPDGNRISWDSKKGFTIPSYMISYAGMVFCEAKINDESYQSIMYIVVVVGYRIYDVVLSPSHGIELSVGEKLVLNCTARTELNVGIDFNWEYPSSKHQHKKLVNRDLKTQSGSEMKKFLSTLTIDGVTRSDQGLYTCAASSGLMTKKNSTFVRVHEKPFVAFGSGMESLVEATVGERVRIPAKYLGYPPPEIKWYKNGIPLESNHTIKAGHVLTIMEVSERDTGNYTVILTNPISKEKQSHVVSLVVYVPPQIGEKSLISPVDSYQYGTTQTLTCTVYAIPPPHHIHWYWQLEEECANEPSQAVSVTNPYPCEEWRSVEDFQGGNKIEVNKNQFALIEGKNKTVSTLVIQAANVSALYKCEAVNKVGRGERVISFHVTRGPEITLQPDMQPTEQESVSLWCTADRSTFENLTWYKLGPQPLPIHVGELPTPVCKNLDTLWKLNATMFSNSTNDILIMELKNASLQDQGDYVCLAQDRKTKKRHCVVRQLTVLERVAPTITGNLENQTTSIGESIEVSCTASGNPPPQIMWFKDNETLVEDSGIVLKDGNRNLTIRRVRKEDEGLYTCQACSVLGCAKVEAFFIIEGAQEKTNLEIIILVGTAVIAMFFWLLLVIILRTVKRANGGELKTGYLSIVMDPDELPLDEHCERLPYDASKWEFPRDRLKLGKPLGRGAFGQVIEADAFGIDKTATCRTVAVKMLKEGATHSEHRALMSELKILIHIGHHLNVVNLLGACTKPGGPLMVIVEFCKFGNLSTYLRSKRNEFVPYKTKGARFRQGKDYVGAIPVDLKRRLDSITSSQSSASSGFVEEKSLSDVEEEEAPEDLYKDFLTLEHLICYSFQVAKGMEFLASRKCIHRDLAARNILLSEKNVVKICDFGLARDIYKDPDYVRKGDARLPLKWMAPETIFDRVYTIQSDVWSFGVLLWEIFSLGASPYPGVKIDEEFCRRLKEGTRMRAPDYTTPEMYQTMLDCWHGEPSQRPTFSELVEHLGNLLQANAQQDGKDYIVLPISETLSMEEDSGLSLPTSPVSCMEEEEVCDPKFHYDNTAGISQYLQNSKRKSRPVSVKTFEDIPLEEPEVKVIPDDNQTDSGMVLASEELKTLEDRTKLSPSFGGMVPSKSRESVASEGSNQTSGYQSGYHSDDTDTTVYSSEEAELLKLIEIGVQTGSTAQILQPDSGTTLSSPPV

C-Raf = C-Raf (Homo sapiens, UniProt P04049); assay: Kinase activity assay, C-Raf
C-Raf, sequence (P04049 whole entry): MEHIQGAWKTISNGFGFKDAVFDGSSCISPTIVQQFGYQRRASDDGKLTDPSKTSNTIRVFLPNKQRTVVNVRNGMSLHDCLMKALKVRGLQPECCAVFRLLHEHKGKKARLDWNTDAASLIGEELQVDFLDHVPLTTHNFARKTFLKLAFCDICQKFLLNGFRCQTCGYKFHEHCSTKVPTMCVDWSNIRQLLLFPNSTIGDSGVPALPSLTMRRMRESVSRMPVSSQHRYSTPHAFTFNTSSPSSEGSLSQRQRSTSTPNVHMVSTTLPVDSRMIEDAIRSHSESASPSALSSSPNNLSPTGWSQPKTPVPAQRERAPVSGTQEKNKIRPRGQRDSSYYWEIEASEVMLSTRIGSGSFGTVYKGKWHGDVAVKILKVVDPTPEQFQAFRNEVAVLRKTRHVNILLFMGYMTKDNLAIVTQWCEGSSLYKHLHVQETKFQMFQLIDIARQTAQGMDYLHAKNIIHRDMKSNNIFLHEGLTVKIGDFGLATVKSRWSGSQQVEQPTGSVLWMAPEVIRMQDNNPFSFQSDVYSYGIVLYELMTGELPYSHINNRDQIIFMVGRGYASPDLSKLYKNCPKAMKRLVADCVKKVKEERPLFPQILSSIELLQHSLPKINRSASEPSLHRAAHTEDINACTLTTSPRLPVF

Src = Src (Homo sapiens, UniProt P12931); assay: Kinase activity assay, Src
Src, sequence (P12931 whole entry): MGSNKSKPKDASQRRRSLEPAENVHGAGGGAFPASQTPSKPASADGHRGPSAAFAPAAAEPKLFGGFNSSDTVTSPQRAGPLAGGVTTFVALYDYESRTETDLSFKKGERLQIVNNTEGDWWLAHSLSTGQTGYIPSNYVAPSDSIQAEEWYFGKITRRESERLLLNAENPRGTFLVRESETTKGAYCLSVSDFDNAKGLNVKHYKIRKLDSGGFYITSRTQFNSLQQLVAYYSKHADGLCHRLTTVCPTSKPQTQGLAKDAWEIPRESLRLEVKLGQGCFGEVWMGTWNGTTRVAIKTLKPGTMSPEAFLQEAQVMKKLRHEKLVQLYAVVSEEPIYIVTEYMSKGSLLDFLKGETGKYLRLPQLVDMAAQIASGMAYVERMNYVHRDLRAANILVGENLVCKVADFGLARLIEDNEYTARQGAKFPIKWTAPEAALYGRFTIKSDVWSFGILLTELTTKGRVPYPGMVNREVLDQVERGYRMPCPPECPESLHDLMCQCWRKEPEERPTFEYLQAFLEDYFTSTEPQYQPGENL

Measured: IC50

Kit, sequence (P10721 26-976): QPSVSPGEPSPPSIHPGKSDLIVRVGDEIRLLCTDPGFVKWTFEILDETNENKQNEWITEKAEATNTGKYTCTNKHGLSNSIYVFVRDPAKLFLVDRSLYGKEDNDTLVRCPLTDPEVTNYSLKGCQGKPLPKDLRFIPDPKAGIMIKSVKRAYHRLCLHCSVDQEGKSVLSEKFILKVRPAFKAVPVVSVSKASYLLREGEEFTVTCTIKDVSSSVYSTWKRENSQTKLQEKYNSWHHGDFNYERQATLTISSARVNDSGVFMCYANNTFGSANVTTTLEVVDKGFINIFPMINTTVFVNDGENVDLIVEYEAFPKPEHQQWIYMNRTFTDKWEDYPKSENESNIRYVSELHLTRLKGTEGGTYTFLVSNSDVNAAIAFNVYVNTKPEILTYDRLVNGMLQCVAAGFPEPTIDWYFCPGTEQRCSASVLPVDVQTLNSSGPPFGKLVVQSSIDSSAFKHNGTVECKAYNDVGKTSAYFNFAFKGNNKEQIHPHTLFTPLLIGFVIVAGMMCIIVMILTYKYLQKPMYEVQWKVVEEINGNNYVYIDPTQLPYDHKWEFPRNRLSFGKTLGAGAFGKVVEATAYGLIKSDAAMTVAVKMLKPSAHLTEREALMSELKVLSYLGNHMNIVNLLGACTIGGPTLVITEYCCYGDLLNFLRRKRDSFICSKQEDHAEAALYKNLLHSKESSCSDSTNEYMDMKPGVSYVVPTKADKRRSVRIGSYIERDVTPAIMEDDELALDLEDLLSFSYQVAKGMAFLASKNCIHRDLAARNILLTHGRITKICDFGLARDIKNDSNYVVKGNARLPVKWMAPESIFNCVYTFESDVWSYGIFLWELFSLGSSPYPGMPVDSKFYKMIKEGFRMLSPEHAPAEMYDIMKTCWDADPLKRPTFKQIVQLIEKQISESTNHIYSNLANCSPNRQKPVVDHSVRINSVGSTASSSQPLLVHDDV
B-Raf V600E, sequence (P15056 whole entry V600E): as the sequence (P15056 whole entry) above, with V600E counted along it

O=C(c1cccc(NS(=O)(=O)c2ccc(C(F)(F)F)cc2)c1F)c1c[nH]c2ncc(Cl)cc12 [P-2058, N-[3-(5-Chloro-1H-pyrrolo[2,3-b]pyridine-3-carbonyl)-2-fluoro-phenyl]-4-trifluoromethyl-benzenesulfonamide]
not listed: Src
≤ 10 µM: all other assays above

COc1ccnc2[nH]cc(C(=O)c3c(F)ccc(NS(=O)(=O)c4cccnc4)c3F)c12 [P-2073, Pyridine-3-sulfonic acid [2,4-difluoro-3-(4-methoxy-1H-pyrrolo[2,3-b]pyridine-3-carbonyl)-phenyl]-amide]
≤ 10 µM: B-Raf V600E | Src | B-Raf | C-Raf

Cn1cc(S(=O)(=O)Nc2cccc(C(=O)c3c[nH]c4ncc(C#N)cc34)c2F)cn1 [P-2090, 1-Methyl-1H-pyrazole-4-sulfonic acid [3-(5-cyano-1H-pyrrolo[2,3-b]pyridine-3-carbonyl)-2-fluoro-phenyl]-amide]
≤ 10 µM: B-Raf V600E | B-Raf | C-Raf

N#Cc1cnc2[nH]cc(C(=O)c3c(F)ccc(NS(=O)(=O)Cc4cccnc4)c3F)c2c1 [P-2094, N-[3-(5-Cyano-1H-pyrrolo[2,3-b]pyridine-3-carbonyl)-2,4-difluoro-phenyl]-C-pyridin-3-yl-methanesulfonamide]
≤ 10 µM: B-Raf V600E | Kit | Kdr

O=C(c1cc(NS(=O)(=O)c2ccc(OC(F)(F)F)cc2)ccc1F)c1c[nH]c2ncc(Cl)cc12 [P-2109, N-[3-(5-Chloro-1H-pyrrolo[2,3-b]pyridine-3-carbonyl)-4-fluoro-phenyl]-4-trifluoromethoxy-benzenesulfonamide]
≤ 10 µM: Kit | B-Raf | Kdr

O=C(c1cccc(NS(=O)(=O)c2ccc(C(F)(F)F)cc2)c1)c1c[nH]c2ncc(Cl)cc12 [P-2126, N-[3-(5-Chloro-1H-pyrrolo[2,3-b]pyridine-3-carbonyl)-phenyl]-4-trifluoromethyl-benzenesulfonamide]
≤ 10 µM: Kit | B-Raf | Kdr

CCCS(=O)(=O)Nc1ccc(F)c(C(=O)c2c[nH]c3ncc(-c4c(C)noc4C)cc23)c1F [P-2156, Propane-1-sulfonic acid {3-[5-(3,5-dimethyl-isoxazol-4-yl)-1H-pyrrolo[2,3-b]pyridine-3-carbonyl]-2,4-difluoro-phenyl}-amide]
≤ 10 µM: B-Raf V600E | Src | Kdr

CCCS(=O)(=O)Nc1ccc(F)c(C(=O)c2c[nH]c3ncc(-c4ccc(Cl)c(C(F)(F)F)c4)cc23)c1F [P-2171, Propane-1-sulfonic acid {3-[5-(4-chloro-3-trifluoromethyl-phenyl)-1H-pyrrolo[2,3-b]pyridine-3-carbonyl]-2,4-difluoro-phenyl}-amide]
≤ 10 µM: B-Raf V600E | Src | B-Raf | Kdr

CCCS(=O)(=O)Nc1ccc(F)c(C(=O)c2c[nH]c3ncc(-c4c(-c5ccccc5)noc4C)cc23)c1F [P-2191, Propane-1-sulfonic acid {2,4-difluoro-3-[5-(5-methyl-3-phenyl-isoxazol-4-yl)-1H-pyrrolo[2,3-b]pyridine-3-carbonyl]-phenyl}-amide]
≤ 10 µM: B-Raf V600E | Src | B-Raf | Kdr

CCCS(=O)(=O)Nc1ccc(F)c(C(=O)c2c[nH]c3ncc(-c4ccc(S(=O)(=O)N5CCCC5)cc4)cc23)c1F [P-2227, Propane-1-sulfonic acid (2,4-difluoro-3-{5-[4-(pyrrolidine-1-sulfonyl)-phenyl]-1H-pyrrolo[2,3-b]pyridine-3-carbonyl}-phenyl)-amide]
≤ 10 µM: B-Raf V600E | B-Raf | Kdr | C-Raf

CCCS(=O)(=O)Nc1ccc(F)c(C(=O)c2c[nH]c3ncc(C(=O)N(C)C)cc23)c1F [P-2237, 3-[2,6-Difluoro-3-(propane-1-sulfonylamino)-benzoyl]-1H-pyrrolo[2,3-b]pyridine-5-carboxylic acid dimethyl amide]
≤ 10 µM: Src | B-Raf | Kdr

CCS(=O)(=O)Nc1ccc(F)c(C(=O)c2c[nH]c3ncc(C#N)cc23)c1F [P-2281, Ethanesulfonic acid [3-(5-cyano-1H-pyrrolo[2,3-b]pyridine-3-carbonyl)-2,4-difluoro-phenyl]-amide]
≤ 10 µM: B-Raf V600E | B-Raf | Kdr | C-Raf

COc1ccnc2[nH]cc(C(=O)c3c(F)ccc(NS(C)(=O)=O)c3F)c12 [P-2293, N-[2,4-Difluoro-3-(4-methoxy-1H-pyrrolo[2,3-b]pyridine-3-carbonyl)-phenyl]-methanesulfonamide]
≤ 10 µM: B-Raf V600E | Kit | Kdr | C-Raf

COc1ccnc2[nH]cc(C(=O)c3c(F)ccc(NS(=O)(=O)CC(F)(F)F)c3F)c12 [P-2340, 2,2,2-Trifluoro-ethanesulfonic acid [2,4-difluoro-3-(4-methoxy-1H-pyrrolo[2,3-b]pyridine-3-carbonyl)-phenyl]-amide]
≤ 10 µM: B-Raf V600E | Src | B-Raf | C-Raf

CCCS(=O)(=O)Nc1cccc(C(=O)c2c[nH]c3ncc(C)cc23)c1F [P-2403, Propane-1-sulfonic acid [2-fluoro-3-(5-methyl-1H-pyrrolo[2,3-b]pyridine-3-carbonyl)-phenyl]-amide]
≤ 10 µM: B-Raf V600E | B-Raf | Kdr | C-Raf

CCCS(=O)(=O)Nc1cccc(C(=O)c2c[nH]c3nccc(C#N)c23)c1F [P-2409, Propane-1-sulfonic acid [3-(4-cyano-1H-pyrrolo[2,3-b]pyridine-3-carbonyl)-2-fluoro-phenyl]-amide]
≤ 10 µM: B-Raf V600E | B-Raf | Kdr | C-Raf

CC(C)CS(=O)(=O)Nc1cccc(C(=O)c2c[nH]c3ncc(C#N)cc23)c1F [P-2412, 2-Methyl-propane-1-sulfonic acid [3-(5-cyano-1H-pyrrolo[2,3-b]pyridine-3-carbonyl)-2-fluoro-phenyl]-amide]
≤ 10 µM: B-Raf V600E | B-Raf | C-Raf

CCC(C)S(=O)(=O)Nc1cccc(C(=O)c2c[nH]c3ncc(C#N)cc23)c1F (stereo not drawn) [P-2413, Butane-2-sulfonic acid [3-(5-cyano-1H-pyrrolo[2,3-b]pyridine-3-carbonyl)-2-fluoro-phenyl]-amide]
≤ 10 µM: B-Raf V600E | B-Raf | C-Raf

N#Cc1cnc2[nH]cc(C(=O)c3cccc(NS(=O)(=O)CCC(F)(F)F)c3F)c2c1 [P-2415, 3,3,3-Trifluoro-propane-1-sulfonic acid [3-(5-cyano-1H-pyrrolo[2,3-b]pyridine-3-carbonyl)-2-fluoro-phenyl]-amide]
≤ 10 µM: B-Raf V600E | B-Raf | C-Raf

N#Cc1cnc2[nH]cc(C(=O)c3cccc(NS(=O)(=O)C4CCCCC4)c3F)c2c1 [P-2416, Cyclohexanesulfonic acid [3-(5-cyano-1H-pyrrolo[2,3-b]pyridine-3-carbonyl)-2-fluoro-phenyl]-amide]
≤ 10 µM: B-Raf V600E | B-Raf | C-Raf

N#Cc1cnc2[nH]cc(C(=O)c3cccc(NS(=O)(=O)C4CCC4)c3F)c2c1 [P-2418, Cyclobutanesulfonic acid [3-(5-cyano-1H-pyrrolo[2,3-b]pyridine-3-carbonyl)-2-fluoro-phenyl]-amide]
≤ 10 µM: B-Raf V600E | B-Raf | C-Raf

CN(C)S(=O)(=O)Nc1cccc(C(=O)c2c[nH]c3ncc(C#N)cc23)c1F [P-2419, N,N-dimethylamino-sulfonic acid [3-(5-cyano-1H-pyrrolo[2,3-b]pyridine-3-carbonyl)-2-fluoro-phenyl]-amide]
≤ 10 µM: B-Raf V600E | Kit

COc1ncc(-c2cnc3[nH]cc(C(=O)c4cccc(NS(=O)(=O)N5CCCC5)c4F)c3c2)cn1 [P-2422, Pyrrolidine-1-sulfonic acid {2-fluoro-3-[5-(2-methoxy-pyrimidin-5-yl)-1H-pyrrolo[2,3-b]pyridine-3-carbonyl]-phenyl}-amide]
≤ 10 µM: B-Raf V600E | B-Raf | Kdr | C-Raf

O=C(c1c(F)ccc(NS(=O)(=O)c2ccc(C(F)(F)F)nc2)c1F)c1c[nH]c2ncc(Cl)cc12 [P-2481, 6-Trifluoromethyl-pyridine-3-sulfonic acid [3-(5-chloro-1H-pyrrolo[2,3-b]pyridine-3-carbonyl)-2,4-difluoro-phenyl]-amide]
≤ 10 µM: Src | B-Raf | Kdr | C-Raf
